From patent US20220009920A1 (GB005, Inc., priority 2020, published 2022)

Experiments:
Test in all cases: Large panel kinase profiling
Format in all cases: biochemical
Settings in all cases: 1 μM test article, 1 mM ATP
EIF2AK4/GCN2 = EIF2AK4/GCN2 (Homo sapiens, UniProt Q9P2K8)
Summary of the method: (§1)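 Steps: combine kinase, CSox-Sensor substrate, 1 mM ATP and 1 μM compound; seal and incubate at 30° C.; read top fluorescence kinetically each minute, Ex 360 nm/Em 485 nm.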

MAP4K5/KSH1 = target: T1, MAP4K5/KSH1 (Homo sapiens, UniProt Q9Y4K4)
T1 construct: AssayQuant Technologies, Inc. (service provider)
Summary of the method: as §1

MAPKAPK2/MK2 = target: T2, MAPKAPK2/MK2 (Homo sapiens, UniProt P49137)
T2 construct: AssayQuant Technologies, Inc. (service provider)
Summary of the method: as §1

CSNK1A1/CK1A1 = target: T3, CSNK1A1/CK1A1 (Homo sapiens, UniProt P48729)
T3 construct: AssayQuant Technologies, Inc. (service laboratory)
Summary of the method: as §1

CLK4 = target: T4, CLK4 (Homo sapiens, UniProt Q9HAZ1)
T4 construct: AssayQuant Technologies, Inc. (service laboratory)
Summary of the method: as §1

TEC = target: T5, TEC (Homo sapiens, UniProt P42680)
T5 construct: AssayQuant Technologies, Inc. (contract laboratory that ran the panel)
T5 sequence (P42680 1-631): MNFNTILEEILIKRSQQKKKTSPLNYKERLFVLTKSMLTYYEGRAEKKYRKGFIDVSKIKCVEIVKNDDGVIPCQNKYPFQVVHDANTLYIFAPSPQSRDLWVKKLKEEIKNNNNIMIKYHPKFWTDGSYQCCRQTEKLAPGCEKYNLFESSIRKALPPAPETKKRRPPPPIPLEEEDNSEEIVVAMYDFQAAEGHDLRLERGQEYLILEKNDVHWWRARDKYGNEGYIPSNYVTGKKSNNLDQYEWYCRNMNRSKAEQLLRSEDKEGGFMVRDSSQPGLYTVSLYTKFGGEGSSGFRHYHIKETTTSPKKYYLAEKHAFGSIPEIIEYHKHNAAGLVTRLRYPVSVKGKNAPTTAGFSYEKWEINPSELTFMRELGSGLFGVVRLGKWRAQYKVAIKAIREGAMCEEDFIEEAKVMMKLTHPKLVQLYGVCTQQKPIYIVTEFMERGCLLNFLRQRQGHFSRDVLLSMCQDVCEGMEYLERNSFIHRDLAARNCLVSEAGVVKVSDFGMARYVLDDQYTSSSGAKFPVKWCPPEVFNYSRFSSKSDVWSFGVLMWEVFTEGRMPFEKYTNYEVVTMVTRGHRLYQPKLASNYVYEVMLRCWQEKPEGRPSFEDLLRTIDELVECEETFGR
Summary of the method: as §1

GSK3B = target: T6, GSK3B (Homo sapiens, UniProt P49841)
T6 construct: AssayQuant Technologies, Inc. (service provider)
Summary of the method: as §1

TAOK1 = target: T7, TAOK1 (Homo sapiens, UniProt Q7L7X3)
T7 construct: AssayQuant Technologies, Inc. (contract assay)
T7 sequence (Q7L7X3 1-1001): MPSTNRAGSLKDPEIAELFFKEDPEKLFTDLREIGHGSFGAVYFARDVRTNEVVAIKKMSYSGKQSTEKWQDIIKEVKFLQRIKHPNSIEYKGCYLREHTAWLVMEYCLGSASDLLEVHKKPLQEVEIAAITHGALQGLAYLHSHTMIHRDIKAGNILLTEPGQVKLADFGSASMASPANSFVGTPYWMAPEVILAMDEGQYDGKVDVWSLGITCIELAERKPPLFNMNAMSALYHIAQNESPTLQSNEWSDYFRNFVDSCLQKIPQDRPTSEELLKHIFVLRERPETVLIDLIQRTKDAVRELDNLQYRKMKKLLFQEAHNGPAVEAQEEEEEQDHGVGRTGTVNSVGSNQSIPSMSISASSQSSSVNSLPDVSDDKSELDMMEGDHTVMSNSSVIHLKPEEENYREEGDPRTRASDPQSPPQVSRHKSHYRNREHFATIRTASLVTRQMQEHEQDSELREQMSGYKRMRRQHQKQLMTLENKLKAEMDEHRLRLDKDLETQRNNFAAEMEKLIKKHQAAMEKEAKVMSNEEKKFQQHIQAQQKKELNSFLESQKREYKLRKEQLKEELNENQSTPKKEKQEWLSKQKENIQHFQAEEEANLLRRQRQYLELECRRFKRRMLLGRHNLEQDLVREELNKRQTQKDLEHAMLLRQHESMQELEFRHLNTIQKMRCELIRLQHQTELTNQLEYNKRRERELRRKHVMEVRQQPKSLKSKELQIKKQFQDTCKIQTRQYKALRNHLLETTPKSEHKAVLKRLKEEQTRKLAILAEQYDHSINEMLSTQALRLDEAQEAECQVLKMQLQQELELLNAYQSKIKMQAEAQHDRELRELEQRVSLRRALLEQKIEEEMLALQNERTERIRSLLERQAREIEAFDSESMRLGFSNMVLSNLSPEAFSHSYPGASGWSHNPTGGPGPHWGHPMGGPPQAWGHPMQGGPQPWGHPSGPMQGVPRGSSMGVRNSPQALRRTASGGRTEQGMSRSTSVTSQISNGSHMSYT
Summary of the method: as §1

JAK2(JH1) = target: T8, JAK2(JH1) (Homo sapiens, UniProt O60674)
T8 construct: JAK2(JH1)
Summary of the method: as §1

T4 sequence (Q9HAZ1 whole entry, species assumed): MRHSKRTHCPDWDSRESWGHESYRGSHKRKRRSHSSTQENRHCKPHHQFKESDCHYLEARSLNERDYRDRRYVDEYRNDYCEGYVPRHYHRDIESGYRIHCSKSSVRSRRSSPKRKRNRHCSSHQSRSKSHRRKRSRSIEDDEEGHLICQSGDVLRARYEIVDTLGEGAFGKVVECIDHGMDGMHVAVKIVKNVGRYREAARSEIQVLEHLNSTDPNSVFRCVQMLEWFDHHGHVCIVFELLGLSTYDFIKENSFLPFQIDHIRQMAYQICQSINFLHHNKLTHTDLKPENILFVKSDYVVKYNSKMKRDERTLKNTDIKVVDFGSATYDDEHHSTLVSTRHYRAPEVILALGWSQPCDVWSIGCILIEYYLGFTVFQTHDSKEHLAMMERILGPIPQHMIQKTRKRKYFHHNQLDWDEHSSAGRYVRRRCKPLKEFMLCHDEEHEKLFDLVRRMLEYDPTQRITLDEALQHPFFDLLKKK
Sequence of EIF2AK4/GCN2 (Q9P2K8 whole entry): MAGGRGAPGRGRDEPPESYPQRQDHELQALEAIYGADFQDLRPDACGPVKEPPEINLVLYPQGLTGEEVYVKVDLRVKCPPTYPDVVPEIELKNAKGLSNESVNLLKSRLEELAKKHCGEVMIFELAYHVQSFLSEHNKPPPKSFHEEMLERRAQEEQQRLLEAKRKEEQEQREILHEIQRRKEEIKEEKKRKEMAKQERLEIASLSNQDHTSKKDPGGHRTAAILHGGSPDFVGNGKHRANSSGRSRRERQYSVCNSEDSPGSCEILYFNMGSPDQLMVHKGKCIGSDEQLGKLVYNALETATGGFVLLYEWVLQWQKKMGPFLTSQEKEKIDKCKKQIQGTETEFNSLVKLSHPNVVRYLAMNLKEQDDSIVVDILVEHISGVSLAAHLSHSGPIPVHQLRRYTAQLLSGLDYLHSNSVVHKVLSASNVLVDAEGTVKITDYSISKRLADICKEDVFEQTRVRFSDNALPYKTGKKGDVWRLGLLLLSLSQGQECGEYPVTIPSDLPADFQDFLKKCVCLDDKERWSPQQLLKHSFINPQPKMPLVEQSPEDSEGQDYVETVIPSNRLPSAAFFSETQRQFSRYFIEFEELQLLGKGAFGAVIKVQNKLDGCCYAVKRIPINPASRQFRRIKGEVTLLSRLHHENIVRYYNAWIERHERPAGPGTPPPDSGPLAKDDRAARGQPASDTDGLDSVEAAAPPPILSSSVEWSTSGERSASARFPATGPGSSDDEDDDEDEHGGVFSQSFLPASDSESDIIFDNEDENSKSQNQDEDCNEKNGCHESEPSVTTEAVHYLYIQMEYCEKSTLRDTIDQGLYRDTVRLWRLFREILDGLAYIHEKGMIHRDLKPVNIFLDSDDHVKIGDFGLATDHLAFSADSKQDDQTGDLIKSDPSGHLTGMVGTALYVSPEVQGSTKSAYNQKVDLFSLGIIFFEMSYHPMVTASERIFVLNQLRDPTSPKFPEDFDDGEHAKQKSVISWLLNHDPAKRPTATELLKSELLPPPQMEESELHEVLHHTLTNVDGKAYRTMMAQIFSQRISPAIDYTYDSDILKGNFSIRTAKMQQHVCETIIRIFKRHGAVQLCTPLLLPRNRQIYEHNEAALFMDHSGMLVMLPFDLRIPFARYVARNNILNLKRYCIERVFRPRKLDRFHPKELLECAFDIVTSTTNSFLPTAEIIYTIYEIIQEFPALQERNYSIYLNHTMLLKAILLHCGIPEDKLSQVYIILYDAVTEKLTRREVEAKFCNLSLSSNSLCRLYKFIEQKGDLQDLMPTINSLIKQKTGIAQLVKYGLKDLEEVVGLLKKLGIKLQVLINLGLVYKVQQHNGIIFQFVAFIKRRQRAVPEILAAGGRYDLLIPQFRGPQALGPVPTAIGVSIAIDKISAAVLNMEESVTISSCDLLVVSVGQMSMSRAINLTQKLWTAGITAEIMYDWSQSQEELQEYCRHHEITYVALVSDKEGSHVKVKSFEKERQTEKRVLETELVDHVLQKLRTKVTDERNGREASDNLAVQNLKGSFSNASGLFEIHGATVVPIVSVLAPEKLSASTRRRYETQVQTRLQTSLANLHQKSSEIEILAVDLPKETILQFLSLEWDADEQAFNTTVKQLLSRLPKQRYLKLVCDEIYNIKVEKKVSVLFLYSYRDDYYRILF
T8 sequence (O60674 849-1124 limits assumed, species assumed): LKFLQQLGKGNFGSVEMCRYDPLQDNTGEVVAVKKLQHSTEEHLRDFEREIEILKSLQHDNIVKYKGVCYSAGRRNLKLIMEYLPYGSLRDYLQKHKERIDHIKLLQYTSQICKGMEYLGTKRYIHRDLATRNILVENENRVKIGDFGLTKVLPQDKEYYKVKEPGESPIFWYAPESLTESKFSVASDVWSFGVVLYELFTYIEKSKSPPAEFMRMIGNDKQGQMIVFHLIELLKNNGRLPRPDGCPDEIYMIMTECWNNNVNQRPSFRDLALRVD
T2 sequence (P49137 whole entry): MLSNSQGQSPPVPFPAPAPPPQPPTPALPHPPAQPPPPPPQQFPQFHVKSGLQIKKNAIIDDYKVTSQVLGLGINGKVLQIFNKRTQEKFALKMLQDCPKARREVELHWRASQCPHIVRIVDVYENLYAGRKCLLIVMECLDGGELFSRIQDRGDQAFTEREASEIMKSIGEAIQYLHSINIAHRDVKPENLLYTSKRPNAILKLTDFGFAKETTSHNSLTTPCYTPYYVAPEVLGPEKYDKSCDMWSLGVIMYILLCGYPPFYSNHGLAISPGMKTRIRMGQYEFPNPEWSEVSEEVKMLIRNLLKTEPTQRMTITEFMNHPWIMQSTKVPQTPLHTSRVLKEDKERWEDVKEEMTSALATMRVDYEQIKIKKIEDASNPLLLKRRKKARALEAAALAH
T6 sequence (P49841 whole entry, species assumed): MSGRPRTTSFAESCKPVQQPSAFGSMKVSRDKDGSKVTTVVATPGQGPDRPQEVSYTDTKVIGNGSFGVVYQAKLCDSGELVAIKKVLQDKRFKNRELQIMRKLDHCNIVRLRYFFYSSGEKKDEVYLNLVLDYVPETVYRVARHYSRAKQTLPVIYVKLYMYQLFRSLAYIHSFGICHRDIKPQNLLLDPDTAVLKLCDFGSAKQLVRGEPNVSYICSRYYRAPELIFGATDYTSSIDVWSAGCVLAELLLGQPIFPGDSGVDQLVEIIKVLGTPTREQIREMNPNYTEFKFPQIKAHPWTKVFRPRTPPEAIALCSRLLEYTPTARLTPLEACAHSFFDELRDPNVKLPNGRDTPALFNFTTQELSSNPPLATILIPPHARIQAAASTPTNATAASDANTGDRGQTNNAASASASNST
T1 sequence (Q9Y4K4 whole entry): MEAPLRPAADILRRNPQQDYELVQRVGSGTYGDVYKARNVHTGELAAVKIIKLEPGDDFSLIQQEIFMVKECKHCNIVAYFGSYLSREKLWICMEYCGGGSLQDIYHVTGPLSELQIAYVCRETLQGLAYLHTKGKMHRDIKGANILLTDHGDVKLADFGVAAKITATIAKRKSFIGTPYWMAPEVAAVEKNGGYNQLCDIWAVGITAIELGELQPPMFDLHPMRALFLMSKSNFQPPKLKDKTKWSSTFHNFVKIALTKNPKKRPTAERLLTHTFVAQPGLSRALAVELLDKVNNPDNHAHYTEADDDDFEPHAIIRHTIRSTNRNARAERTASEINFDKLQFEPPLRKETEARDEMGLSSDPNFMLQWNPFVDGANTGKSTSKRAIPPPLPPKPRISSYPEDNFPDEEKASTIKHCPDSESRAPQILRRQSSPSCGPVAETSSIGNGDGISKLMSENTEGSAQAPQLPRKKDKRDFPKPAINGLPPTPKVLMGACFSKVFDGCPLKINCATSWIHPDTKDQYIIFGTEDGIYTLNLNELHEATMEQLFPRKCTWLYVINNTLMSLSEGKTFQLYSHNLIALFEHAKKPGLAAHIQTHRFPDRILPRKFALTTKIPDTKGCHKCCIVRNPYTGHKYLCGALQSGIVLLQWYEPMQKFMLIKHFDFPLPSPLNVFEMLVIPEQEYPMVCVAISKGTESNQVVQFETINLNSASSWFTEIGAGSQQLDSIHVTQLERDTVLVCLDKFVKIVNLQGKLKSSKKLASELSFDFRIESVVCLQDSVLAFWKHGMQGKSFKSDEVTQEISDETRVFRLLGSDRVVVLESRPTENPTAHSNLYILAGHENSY
T3 sequence (P48729 whole entry): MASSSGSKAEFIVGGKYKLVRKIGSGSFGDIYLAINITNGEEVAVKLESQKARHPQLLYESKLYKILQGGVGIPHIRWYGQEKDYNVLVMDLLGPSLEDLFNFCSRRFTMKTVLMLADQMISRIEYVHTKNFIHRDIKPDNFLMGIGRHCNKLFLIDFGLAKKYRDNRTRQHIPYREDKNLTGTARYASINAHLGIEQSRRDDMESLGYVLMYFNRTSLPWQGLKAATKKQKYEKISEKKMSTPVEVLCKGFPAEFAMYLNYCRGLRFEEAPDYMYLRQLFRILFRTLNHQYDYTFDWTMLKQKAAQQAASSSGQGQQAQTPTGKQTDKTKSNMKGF

C=CC(=O)N1CCCC(c2c(F)cc(C(N)=O)c3[nH]c4c(c23)CCCCC4)C1 (single isomer, unassigned) [Compound 5-6]
inhibition at 1 µM (EIF2AK4/GCN2): -20.4%
inhibition at 1 µM (MAP4K5/KSH1): -1.1%
inhibition at 1 µM (MAPKAPK2/MK2): -5.9%
inhibition at 1 µM (CSNK1A1/CK1A1): 9.6%
inhibition at 1 µM (CLK4): 12.3%
inhibition at 1 µM (TEC): 80.3%
inhibition at 1 µM (GSK3B): -6%
inhibition at 1 µM (TAOK1): 11.9%
inhibition at 1 µM (JAK2(JH1)): 11.4%

C=CC(=O)N1CCC[C@@H](c2c(F)cc(C(N)=O)c3[nH]c4c(c23)CC2(CC4)CC2)C1 [Compound 6-2, (S)-5-(1-acryloylpiperidin-3-yl)-6-fluoro-1,2,4,9-tetrahydrospiro[carbazole-3,1′-cyclopropane]-8-carboxamide]
inhibition at 1 µM (EIF2AK4/GCN2): 25.9%
inhibition at 1 µM (MAP4K5/KSH1): 4.1%
inhibition at 1 µM (MAPKAPK2/MK2): 24.1%
inhibition at 1 µM (CSNK1A1/CK1A1): 11.2%
inhibition at 1 µM (CLK4): 6.5%
inhibition at 1 µM (TEC): 84.5%
inhibition at 1 µM (GSK3B): 18.7%
inhibition at 1 µM (TAOK1): 9.5%
inhibition at 1 µM (JAK2(JH1)): 10.3%

C=CC(=O)N1CCC[C@@H](c2c(F)cc(C(N)=O)c3[nH]c4c(c23)CCC4)C1 [Compound 10-2, (S)-8-(1-acryloylpiperidin-3-yl)-7-fluoro-1,2,3,4-tetrahydrocyclo-penta[b]indole-5-carboxamide]
inhibition at 1 µM (EIF2AK4/GCN2): 29.1%
inhibition at 1 µM (MAP4K5/KSH1): -4.9%
inhibition at 1 µM (MAPKAPK2/MK2): -7.1%
inhibition at 1 µM (CSNK1A1/CK1A1): -2.8%
inhibition at 1 µM (CLK4): 2.7%
inhibition at 1 µM (TEC): 76.1%
inhibition at 1 µM (GSK3B): -12.5%
inhibition at 1 µM (TAOK1): 11.1%
inhibition at 1 µM (JAK2(JH1)): -0.8%
